What was measured:
[1] = tested on: pain or itch; test: Topical EETs in the methods of the invention (comparison of EET regioisomers); format: in vivo; conditions: topical administration
[2] = target: T1, sEH (Homo sapiens, UniProt P34913); test: Inhibition of sEH activity; format: biochemical
T1 sequence (P34913 1-555): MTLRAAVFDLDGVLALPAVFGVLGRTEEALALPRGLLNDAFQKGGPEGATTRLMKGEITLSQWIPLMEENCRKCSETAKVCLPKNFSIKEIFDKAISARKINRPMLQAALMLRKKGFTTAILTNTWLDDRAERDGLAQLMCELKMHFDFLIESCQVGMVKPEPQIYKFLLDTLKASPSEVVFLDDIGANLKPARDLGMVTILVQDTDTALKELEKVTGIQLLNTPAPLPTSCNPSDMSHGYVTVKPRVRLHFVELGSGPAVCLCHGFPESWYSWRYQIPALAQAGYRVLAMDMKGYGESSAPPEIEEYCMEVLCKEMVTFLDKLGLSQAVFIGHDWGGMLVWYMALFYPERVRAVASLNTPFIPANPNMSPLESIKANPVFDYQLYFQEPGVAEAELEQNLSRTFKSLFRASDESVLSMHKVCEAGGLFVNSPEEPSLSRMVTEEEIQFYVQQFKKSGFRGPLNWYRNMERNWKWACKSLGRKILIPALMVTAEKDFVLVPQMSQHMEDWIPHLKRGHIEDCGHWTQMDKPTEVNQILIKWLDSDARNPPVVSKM
From the text: Any of a number of standard assays for determining epoxide hydrolase activity can be used to determine inhibition of sEH. For example, suitable assays are described in Gill, et al., Anal Biochem 131, 273-282 (1983); and Borhan, et al., Analytical Biochemistry 231, 188-200 (1995)). Suitable in vitro assays are described in Zeldin et al., J Biol. Chem. 268:6402-6407 (1993). Suitable in vivo assays are described in Zeldin et al., Arch Biochem Biophys 330:87-96 (1996). […]
The enzyme also can be detected based on the binding of specific ligands to the catalytic site which either immobilize the enzyme or label it with a probe such as dansyl, fluoracein, luciferase, green fluorescent protein or other reagent. […] The enzyme also can be detected based on the generation of fluorescent products following the hydrolysis of the epoxide. […]

[3] = Metabolic stability; format: in vitro ADME
[4] = tested on: LPS-induced thermal hyperalgesia; test: LPS-induced thermal hyperalgesia, hind paw withdrawal latency test (Hargreaves); format: in vivo, rat; conditions: for LPS-induced thermal hyperalgesia, percent thermal withdrawal latency (TWL): topical in vehicle cream (Vanicream), 50 mg/kg, LPS 10 μg in hind paw, FIG. 1; for LPS-induced thermal hyperalgesia, dose dependence of percent TWL: topical in vehicle cream, LPS 10 μg, FIG. 2
From the text: The hyperalgesic response with the hind paw withdrawal test is considered to result from a combination of central and peripheral mechanisms (Kannan et al., “Endotoxin-induced local inflammation and hyperalgesia in rats mice, a new model for inflammatory pain,” Pharmacology 66:373-379 (1996)). We used the method of Hargreaves et al., “A new and sensitive method for measuring thermal nociception in cutaneous hyperalgesia”, Pain 32, 77-88 (1988) to quantify the pain response of rats treated with two sEH inhibitors and EETs. Pain was quantified using the hind paw withdrawal latency test. Male Sprague-Dawley rats (Charles River Laboratories, Inc., Wilmington, Mass.) weighing 250-300 g, were used. Animals were individually housed at UC Davis Animal Resource Facility under standard conditions with free access to food and water, and maintained for at least 1 week before the experiments. Each rat was used only once. All the experiments were performed during the daytime between 8.00 and 13.00 h (during the first phase of the light period of the diurnal cycle). Rats were first trained to the experimental chamber in three separate sessions. In the day of the experiments rats' basal response was measured and then they were treated with a neutral cream or compound containing formulated cream preceding an injection with 10 ug of endotoxin (Lipopolysaccharide, “LPS”) or capsaicin in the right hind paw to induce pain response. Pain response was then measured at 30, 60, 120 and 240 minutes post LPS or capsaicin injection. sEHIs were formulated by dissolving them in ethanol and mixing with cream in a ratio of 1:9. Eight animals per group were used. To assess thermal nociceptive responses, a commercially available device modeled after that described by Hargreaves et al., supra, was employed. This device consists of a glass surface upon which the rats are placed individually in Plexiglass cubicles (9×22×25 cm). The glass surface temperature is maintained at either 30.1° C. by a feedback-controlled, under-glass, forced-air heating system. The heating system is driven by a thermocouple attached to the bottom surface of the glass plate. The thermal nociceptive stimulus originates from a focused projection bulb mounted in a stimulus tower that is manually manipulated in a two-dimensional axis to permit the stimulus to be delivered to hind paw of each test subject. A timer is automatically actuated with the light source, and response latency is defined as the time required for the paw to show an abrupt withdrawal. Paw withdrawal is detected by a photodiode motion sensor mounted on the stimulus tower that stops the timer and terminates the stimulus. In all cases, a cut-off of 20 seconds is employed to avoid tissue injury. […]

[5] = tested on: LPS-elicited mechanical allodynia; test: LPS-elicited mechanical allodynia, von Frey filaments; format: in vivo, rat; conditions: topical in vehicle cream; 50 mg/kg; LPS 10 μg; FIG. 3
Procedure: For the quantification of mechanical allodynia, a set of von Frey filaments with different diameters corresponding to different quantities of force applied were employed. The baseline responses of animals were first determined and than LPS was injected in the hind paw. Responses were measured 1 hr and 2 hrs after LPS injection. Eight animals per group were used. Rats' paws were stimulated with filaments of increasing diameter three times. The diameter of filaments that rats withdraw their paws were recorded.

[6] = tested on: carrageenan-elicited thermal hyperalgesia; test: Carrageenan-elicited thermal hyperalgesia, paw withdrawal latency; format: in vivo, rat; conditions: carrageenan injected into ipsilateral paw at time 0; AUDA-be administered at 20 hours post-exposure; FIG. 6
Procedure: Animals were exposed to carrageenan at time 0 by injection into ipsilateral paw, the contralateral paw was left untreated. AUDA-be was administered at 20 hours post-exposure to the carrageenan. Filled diamonds are the withdrawal tests of the treated paw. Filled squares are the tests of the untreated paw. To assess thermal nociceptive responses, a commercially available device modeled after that described by Hargreaves et al., supra, was employed. This device consists of a glass surface upon which the rats are placed individually in Plexiglass cubicles (9×22×25 cm). The glass surface temperature is maintained at either 30.1° C. by a feedback-controlled, under-glass, forced-air heating system. The heating system is driven by a thermocouple attached to the bottom surface of the glass plate. The thermal nociceptive stimulus originates from a focused projection bulb mounted in a stimulus tower that is manually manipulated in a two-dimensional axis to permit the stimulus to be delivered to hind paw of each test subject. A timer is automatically actuated with the light source, and response latency is defined as the time required for the paw to show an abrupt withdrawal. Paw withdrawal is detected by a photodiode motion sensor mounted on the stimulus tower that stops the timer and terminates the stimulus. In all cases, a cut-off of 20 seconds is employed to avoid tissue injury. […]

Activity as an inhibitor of sEH [2] | Metabolic stability [3] | SMILES | Effectiveness compared with other EETs in the methods of the invention [1] | LPS-induced thermal hyperalgesia, percent thermal withdrawal latency (TWL) [4] | LPS-induced thermal hyperalgesia, dose dependence of percent TWL [4] | LPS-elicited mechanical allodynia, percent mechanical withdrawal threshold (MWT) [5] | Carrageenan-elicited thermal hyperalgesia, thermal withdrawal latency of paw (PWL) [6]
– | – | CCCCC/C=C\C[C@H]1O[C@H]1C/C=C\C/C=C\CCCC(=O)O [11,12-EET] | ineffective or less effective than other EETs | – | – | – | –
particularly high activity on sEH | metabolically stable | CCCCCCCCCCCCNC(=O)NC12CC3CC(CC(C3)C1)C2 [ADU, N-Adamantyl-N′-dodecyl urea] | – | – | – | – | –
– | – | CCCCOC(=O)CCCCCCCCCCCNC(=O)NC12CC3CC(CC(C3)C1)C2 [AUDA-be, 12-(3-Adamantan-1-yl-ureido)dodecanoic acid butyl ester] | – | block | block LPS-induced thermal hyperalgesia in a dose dependent way | block LPS-elicited mechanical allodynia | blocks carrageenan-elicited thermal hyperalgesia
– | – | CCOCCOCCOCCCCCNC(=O)NC12CC3CC(CC(C3)C1)C2 [compound 950, Adamantan-1-yl-3-{5-[2-(2-ethoxyethoxy)ethoxy]pentyl}urea] | – | block | block LPS-induced thermal hyperalgesia in a dose dependent way | block LPS-elicited mechanical allodynia | –

From patent US9119837B2, “Use of sEH inhibitors as analgesics” (The Regents of the University of California, priority 2005, dated 2015)
